Paper PMC8111002 (Communications Biology, 2021)
Square brackets hold non-standard residues; d marks the D form. Ends that are not written are not given here. Peptide text beside a SMILES is read from it. βAla = NCCC(=O)O

Legend:
[1] = biological target: B-subunits of Stx1a and Stx2a; details: cited from earlier work
A-subunit = assay type: binding, Escherichia coli
EHEC = details: mouse, in vivo; cited from earlier work
Stx1a = Stx1a (UniProt P08026+P69178); experiment: cell-based; design: species or system Escherichia coli
Stx2a = Stx2a (Escherichia phage 933W, UniProt P09385+P09386); experiment: cell-based; design: species or system Escherichia coli
Stx1a A-subunit = Stx1a A-subunit (Enterobacteria phage H19B, UniProt P08026); experiment: biochemical; assay type: binding, Escherichia coli
Stx2a A-subunit = Stx2a A-subunit (Escherichia phage 933W, UniProt P09385); experiment: biochemical; assay type: binding, Escherichia coli

Galα[1-4]-Galβ[1-4]-Glcβ- [free trisaccharide]
Kd [1]: mM order

ARRRRA
inhibition of the binding between MMβA-mono and the A-subunit (A-subunit): efficiently inhibited

Arg-Arg-Arg-Arg (RRRR)
inhibition of the binding between MMβA-mono and the A-subunit (A-subunit): efficiently inhibited

MMARRRR [MMA-tet]
inhibitory effects against the lethality in EHEC infected mice (EHEC): potent inhibitory effects

CSCC[C@H](NC(=O)[C@H](C)NC(=O)[C@@H](N)CCSC)C(=O)N[C@@H](CCSC)C(=O)NCCC(=O)N[C@@H](CCCNC(=N)N)C(=O)N[C@@H](CCCNC(=N)N)C(=O)N[C@@H](CCCNC(=N)N)C(=O)N[C@@H](CCCNC(=N)N)C(=O)N[C@@H](C)C(N)=O [MMβA-mono] (H-MAMM[βAla]RRRRA-NH2)
IC50 (Stx1a): 59.2 µM | IC50 (Stx2a): 9.6 µM | Kd (Stx1a A-subunit): 0.032 µM | Kd (Stx2a A-subunit): 0.05 µM

Arg-Arg-Arg-Arg-Ala (RRRRA)
inhibition of the binding between MMβA-mono and the A-subunit (A-subunit): efficiently inhibited
